Results reported in patent publication US6436921B1, “Carbapenem derivatives and a preparation method thereof” (Korea Institute of Science and Technology, priority 1997, dated 2002).
≈ marks a conversion by molar mass, not a printed value.

What was measured:
Escherichia coli 1507E = test: Antibacterial activity test (agar dilution MIC); format: cell-based
Procedure: (§1) Gram-positive Streptococcus and Staphylococcus and Gram-negative Escherichia coli, Pseudomonas, Salmonella, Klebsiella and Enterobacter were selected for the test. After the cells were diluted and cultured in agar, the compounds of the present invention were treated to obtain the minimum inhibitory concentration in the units of μg/ml.

[1] = system: Pseudomonas aeruginosa 1592E; test: Antibacterial activity test (agar dilution MIC); format: cell-based
Procedure: as §1

[2] = system: Staphylococcus aureus 285; test: Antibacterial activity test (agar dilution MIC); format: cell-based; conditions: Staphylococcus aureus 285, agar
Procedure: as §1

[3] = system: Streptococcus faecium MD8b; test: Antibacterial activity test (agar dilution MIC); format: cell-based
Procedure: as §1

Escherichia coli DC0 = test: Antibacterial activity test (agar dilution MIC); format: cell-based
Procedure: as §1

Salmonella typhimurium = test: Antibacterial activity test (agar dilution MIC); format: cell-based
Procedure: as §1

[4] = system: Pseudomonas aeruginosa 1771; test: Antibacterial activity test (agar dilution MIC); format: cell-based; conditions: Pseudomonas aeruginosa 1771, agar
Procedure: as §1

[5] = system: Staphylococcus aureus SG511; test: Antibacterial activity test (agar dilution MIC); format: cell-based
Procedure: as §1

[6] = system: Staphylococcus aureus 503; test: Antibacterial activity test (agar dilution MIC); format: cell-based; conditions: Staphylococcus aureus 503, agar
Procedure: as §1

Klebsiella oxytoca 1082E = test: Antibacterial activity test (agar dilution MIC); format: cell-based
Procedure: as §1

[7] = system: Pseudomonas aeruginosa 9027; test: Antibacterial activity test (agar dilution MIC); format: cell-based; conditions: Pseudomonas aeruginosa 9027, agar
Procedure: as §1

Enterobacter cloacae P99 = test: Antibacterial activity test (agar dilution MIC); format: cell-based
Procedure: as §1

Escherichia coli DC2 = test: Antibacterial activity test (agar dilution MIC); format: cell-based
Procedure: as §1

Escherichia coli 078 [8] = test: Antibacterial activity test (agar dilution MIC); format: cell-based; conditions: Escherichia coli 078, agar
Procedure: as §1

Escherichia coli TEM = test: Antibacterial activity test (agar dilution MIC); format: cell-based; conditions: for Minimum inhibitory concentration: Escherichia coli TEM, agar
Procedure: as §1

[9] = system: Streptococcus pyogenes 77A; test: Antibacterial activity test (agar dilution MIC); format: cell-based
Procedure: as §1

[10] = system: Enterobacter cloacae 1321E; test: Antibacterial activity test (agar dilution MIC); format: cell-based
Procedure: as §1

[11] = system: Klebsiella aerogenes 1522E; test: Antibacterial activity test (agar dilution MIC); format: cell-based
Procedure: as §1

[12] = system: Streptococcus pyogenes 308A; test: Antibacterial activity test (agar dilution MIC); format: cell-based
Procedure: as §1

[13] = system: Pseudomonas aeruginosa 1771M; test: Antibacterial activity test (agar dilution MIC); format: cell-based; conditions: Pseudomonas aeruginosa, 1771M, read-out: Minimum inhibitory concentration
Procedure: as §1

[14] = Bioavailability test, subcutaneous injection to mice; format: in vivo
[15] = system: Streptococcus pyrogenes A 77; test: PD50 test using mice; format: in vivo; parameters: PD50: unit not given beside the values; conditions: Streptococcus pyrogenes A 77
Description: (§2) This means that ⅓ of the amount of the compound 10 has the same effect as meropenem.
(§3) Streptococcus pyrogenes A 77 and Escherichia coli 078 were selected as gram-positive and gram-negative strains, respectively.

Escherichia coli 078 [16] = test: PD50 test using mice; format: in vivo; parameters: PD50: unit not given beside the values; conditions: Escherichia coli 078
Description: as §2, §3

[17] = read-out: Minimum inhibitory concentration

C[C@@H](O)[C@H]1C(=O)N2C(C(=O)O)=C(S[C@@H]3CN[C@H](C(=O)NCCC(=O)NCCO)C3)[C@H](C)[C@H]12 [Compound 3]
Minimum inhibitory concentration (Escherichia coli 1507E): 0.025 µg/mL (≈ 0.0531 µM) | Minimum inhibitory concentration [1]: 1.563 µg/mL (≈ 3.32 µM) | Minimum inhibitory concentration [2]: 0.391 µg/mL (≈ 0.831 µM) | Minimum inhibitory concentration [3]: 12.5 µg/mL (≈ 26.6 µM) | Minimum inhibitory concentration (Escherichia coli DC0): 0.049 µg/mL (≈ 0.104 µM) | Minimum inhibitory concentration (Salmonella typhimurium): 0.049 µg/mL (≈ 0.104 µM) | Minimum inhibitory concentration [4]: 1.563 µg/mL (≈ 3.32 µM) | Minimum inhibitory concentration [5]: 0.195 µg/mL (≈ 0.414 µM) | Minimum inhibitory concentration [6]: 0.195 µg/mL (≈ 0.414 µM) | Minimum inhibitory concentration (Klebsiella oxytoca 1082E): 0.098 µg/mL (≈ 0.208 µM) | Minimum inhibitory concentration [7]: 1.563 µg/mL (≈ 3.32 µM) | Minimum inhibitory concentration (Enterobacter cloacae P99): 0.049 µg/mL (≈ 0.104 µM) | Minimum inhibitory concentration (Escherichia coli DC2): 0.049 µg/mL (≈ 0.104 µM) | Minimum inhibitory concentration (Escherichia coli 078 [8]): 0.025 µg/mL (≈ 0.0531 µM) | Minimum inhibitory concentration (Escherichia coli TEM): 0.025 µg/mL (≈ 0.0531 µM) | Minimum inhibitory concentration [9]: 0.007 µg/mL (≈ 0.0149 µM) | Minimum inhibitory concentration [10]: 0.025 µg/mL (≈ 0.0531 µM) | Minimum inhibitory concentration [11]: 0.049 µg/mL (≈ 0.104 µM) | Minimum inhibitory concentration [12]: 0.013 µg/mL (≈ 0.0276 µM)

C[C@@H](O)[C@H]1C(=O)N2C(C(=O)O)=C(S[C@@H]3CN[C@H](C(=O)NCCC(N)=O)C3)[C@H](C)[C@H]12 [Compound 1]
MIC (Escherichia coli 1507E; [17]): 0.025 µg/mL (≈ 0.0586 µM) | MIC [1, 17]: 0.391 µg/mL (≈ 0.917 µM) | MIC [2, 17]: 0.195 µg/mL (≈ 0.457 µM) | MIC ([3]; Enterococcus faecium, read-out: Minimum inhibitory concentration): 12.5 µg/mL (≈ 29.3 µM) | MIC (Escherichia coli DC0; [17]): 0.025 µg/mL (≈ 0.0586 µM) | MIC (Salmonella typhimurium; Salmonella enterica, read-out: Minimum inhibitory concentration): 0.049 µg/mL (≈ 0.115 µM) | MIC [4, 17]: 0.781 µg/mL (≈ 1.83 µM) | MIC [5, 17]: 0.195 µg/mL (≈ 0.457 µM) | MIC [6, 17]: 0.098 µg/mL (≈ 0.23 µM) | MIC (Klebsiella oxytoca 1082E; [17]): 0.098 µg/mL (≈ 0.23 µM) | MIC [7, 17]: 0.391 µg/mL (≈ 0.917 µM) | MIC [13]: 0.391 µg/mL (≈ 0.917 µM) | MIC (Enterobacter cloacae P99; [17]): 0.049 µg/mL (≈ 0.115 µM) | MIC (Escherichia coli 078 [8]; [17]): 0.025 µg/mL (≈ 0.0586 µM) | MIC (Escherichia coli TEM; Escherichia coli, read-out: Minimum inhibitory concentration): 0.025 µg/mL (≈ 0.0586 µM) | MIC [9, 17]: 0.007 µg/mL (≈ 0.0164 µM) | MIC [10, 17]: 0.025 µg/mL (≈ 0.0586 µM) | MIC [11, 17]: 0.049 µg/mL (≈ 0.115 µM) | MIC [12, 17]: 0.013 µg/mL (≈ 0.0305 µM)

C[C@@H](O)[C@H]1C(=O)N2C(C(=O)O)=C(S[C@@H]3CN[C@H](C(=O)NCCS(=O)(=O)N4CCCC4)C3)[C@H](C)[C@H]12 [Compound 15]
Minimum inhibitory concentration (Escherichia coli 1507E): 0.025 µg/mL (≈ 0.0484 µM) | Minimum inhibitory concentration [1]: 0.391 µg/mL (≈ 0.757 µM) | Minimum inhibitory concentration [2]: 0.195 µg/mL (≈ 0.377 µM) | Minimum inhibitory concentration [3]: 12.5 µg/mL (≈ 24.2 µM) | Minimum inhibitory concentration (Escherichia coli DC0): 0.025 µg/mL (≈ 0.0484 µM) | Minimum inhibitory concentration (Salmonella typhimurium): 0.049 µg/mL (≈ 0.0948 µM) | Minimum inhibitory concentration [4]: 0.781 µg/mL (≈ 1.51 µM) | Minimum inhibitory concentration [5]: 0.195 µg/mL (≈ 0.377 µM) | Minimum inhibitory concentration [6]: 0.195 µg/mL (≈ 0.377 µM) | Minimum inhibitory concentration (Klebsiella oxytoca 1082E): 0.098 µg/mL (≈ 0.19 µM) | Minimum inhibitory concentration [7]: 0.391 µg/mL (≈ 0.757 µM) | Minimum inhibitory concentration (Enterobacter cloacae P99): 0.049 µg/mL (≈ 0.0948 µM) | Minimum inhibitory concentration (Escherichia coli DC2): 0.049 µg/mL (≈ 0.0948 µM) | Minimum inhibitory concentration (Escherichia coli 078 [8]): 0.025 µg/mL (≈ 0.0484 µM) | Minimum inhibitory concentration (Escherichia coli TEM): 0.025 µg/mL (≈ 0.0484 µM) | Minimum inhibitory concentration [9]: 0.007 µg/mL (≈ 0.0135 µM) | Minimum inhibitory concentration [10]: 0.025 µg/mL (≈ 0.0484 µM) | Minimum inhibitory concentration [11]: 0.049 µg/mL (≈ 0.0948 µM) | Minimum inhibitory concentration [12]: 0.013 µg/mL (≈ 0.0252 µM)

C[C@@H](O)[C@H]1C(=O)N2C(C(=O)O)=C(S[C@@H]3CN[C@H](C(=O)N(C)C)C3)[C@H](C)[C@H]12 [meropenem, reference compound]
Cmax [14]: 7600 ± 550 ng/mL | T1/2 [14]: 14.4 ± 13.2 min | Tmax [14]: 12.6 ± 2.4 min | AUC ([14]; mouse, in vivo, sc, AUC 0-2 hr): 3290 ± 290 ng·h/mL | PD50 [15]: 7.16 | PD50 (Escherichia coli 078 [16]): 1.24
